Measured values published in the supplement of paper PMC10307832.

Columns and labels:
Test in all cases: relative viability (nuclei count vs DMSO), 5 days (fraction); higher = more cells survive
HCC-78 = tested on: HCC-78
Procedure, shortened: (§1)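 Lung cancer cell lines, seeded in 1536-well plates, were treated the following day by pin tool with a single drug or with five library-drug doses (not always all listed) in √10 steps on top of a fixed anchor-drug dose. Cells were fixed and nuclei stained in one step after 5 days, and nuclei were counted. Relative viability is the nuclei count for treated wells divided by that for vehicle wells, reported as medians of duplicate plates.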

NCI-H647 = tested on: NCI-H647
Procedure, shortened: as §1

ChaGo-K-1 = tested on: ChaGo-K-1
Procedure, shortened: as §1

HCC-827 = tested on: HCC-827
Procedure, shortened: as §1

EPLC-272H = tested on: EPLC-272H
Procedure, shortened: as §1

NCI-H2405 = tested on: NCI-H2405
Procedure, shortened: as §1

NCI-H2087 = tested on: NCI-H2087
Procedure, shortened: as §1

NCI-H322M = tested on: NCI-H322M
Procedure, shortened: as §1

NCI-H520 = tested on: NCI-H520
Procedure, shortened: as §1

NCI-H1666 = tested on: NCI-H1666
Procedure, shortened: as §1

NCI-H2347 = tested on: NCI-H2347
Procedure, shortened: as §1

RERF-LC-KJ = tested on: RERF-LC-KJ
Procedure, shortened: as §1

NCI-H1915 = tested on: NCI-H1915
Procedure, shortened: as §1

NCI-H23 = tested on: NCI-H23
Procedure, shortened: as §1

LC-2-ad = tested on: LC-2-ad
Procedure, shortened: as §1

NCI-H650 = tested on: NCI-H650
Procedure, shortened: as §1

NCI-H2126 = tested on: NCI-H2126
Procedure, shortened: as §1

LCLC-97TM1 = tested on: LCLC-97TM1
Procedure, shortened: as §1

COR-L 105 = tested on: COR-L 105
Procedure, shortened: as §1

H3255 = tested on: H3255
Procedure, shortened: as §1

PC-14 = tested on: PC-14
Procedure, shortened: as §1

201T = tested on: 201T
Procedure, shortened: as §1

NCI-H661 = tested on: NCI-H661
Procedure, shortened: as §1

C[C@@H]1CN(CC(=O)Nc2ccc3c(c2)Cc2cccc(-c4cc(=O)cc(N5CCOCC5)o4)c2S3)C[C@H](C)O1 + CC(C)C[C@H](NC(=O)[C@H](Cc1ccccc1)NC(=O)c1cnccn1)B(O)O [Bortezomib] (partner 0.002 µM)
relative viability (HCC-78; first compound 0.04 µM): 0.404 | relative viability (HCC-78; first compound 0.1265 µM): 0.484 | relative viability (HCC-78; first compound 0.4 µM): 0.431 | relative viability (HCC-78; first compound 4 µM): 0.432 | relative viability (NCI-H647; first compound 0.04 µM): 1 | relative viability (NCI-H647; first compound 0.1265 µM): 1.02 | relative viability (NCI-H647; first compound 0.4 µM): 0.985 | relative viability (NCI-H647; first compound 4 µM): 0.484 | relative viability (ChaGo-K-1; first compound 0.1265 µM): 1.02 | relative viability (ChaGo-K-1; first compound 0.4 µM): 0.936 | relative viability (ChaGo-K-1; first compound 4 µM): 0.87 | relative viability (HCC-827; first compound 0.04 µM): 1.01 | relative viability (HCC-827; first compound 0.1265 µM): 1.02 | relative viability (HCC-827; first compound 0.4 µM): 1.06 | relative viability (HCC-827; first compound 4 µM): 1.09 | relative viability (EPLC-272H; first compound 0.04 µM): 0.925 | relative viability (EPLC-272H; first compound 0.1265 µM): 0.894 | relative viability (EPLC-272H; first compound 0.4 µM): 1.03 | relative viability (EPLC-272H; first compound 4 µM): 0.993 | relative viability (NCI-H2405; first compound 0.04 µM): 0.984 | relative viability (NCI-H2405; first compound 0.1265 µM): 0.995 | relative viability (NCI-H2405; first compound 0.4 µM): 0.978 | relative viability (NCI-H2405; first compound 4 µM): 0.994 | relative viability (NCI-H2087; first compound 0.04 µM): 0.751 | relative viability (NCI-H2087; first compound 0.1265 µM): 0.808 | relative viability (NCI-H2087; first compound 0.4 µM): 0.948 | relative viability (NCI-H2087; first compound 4 µM): 0.652 | relative viability (NCI-H322M; first compound 0.04 µM): 1.09 | relative viability (NCI-H322M; first compound 0.1265 µM): 1.14 | relative viability (NCI-H322M; first compound 0.4 µM): 1.32 | relative viability (NCI-H322M; first compound 4 µM): 1.12 | relative viability (NCI-H520; first compound 0.04 µM): 0.906 | relative viability (NCI-H520; first compound 0.1265 µM): 0.671 | relative viability (NCI-H520; first compound 0.4 µM): 0.247 | relative viability (NCI-H520; first compound 4 µM): 0.584 | relative viability (NCI-H1666; first compound 0.04 µM): 0.872 | relative viability (NCI-H1666; first compound 0.1265 µM): 0.993 | relative viability (NCI-H1666; first compound 0.4 µM): 0.823 | relative viability (NCI-H1666; first compound 4 µM): 0.643 | relative viability (NCI-H2347; first compound 0.04 µM): 0.923 | relative viability (NCI-H2347; first compound 0.1265 µM): 1.03 | relative viability (NCI-H2347; first compound 0.4 µM): 1.2 | relative viability (NCI-H2347; first compound 4 µM): 0.958 | relative viability (RERF-LC-KJ; first compound 0.04 µM): 1.24 | relative viability (RERF-LC-KJ; first compound 0.1265 µM): 1.17 | relative viability (RERF-LC-KJ; first compound 0.4 µM): 1.07 | relative viability (RERF-LC-KJ; first compound 4 µM): 0.998 | relative viability (NCI-H1915; first compound 0.04 µM): 0.905 | relative viability (NCI-H1915; first compound 0.1265 µM): 0.964 | relative viability (NCI-H1915; first compound 0.4 µM): 1.03 | relative viability (NCI-H1915; first compound 4 µM): 0.73 | relative viability (NCI-H23; first compound 0.04 µM): 1.27 | relative viability (NCI-H23; first compound 0.1265 µM): 1.21 | relative viability (NCI-H23; first compound 0.4 µM): 1.03 | relative viability (NCI-H23; first compound 4 µM): 0.991 | relative viability (LC-2-ad; first compound 0.04 µM): 1.09 | relative viability (LC-2-ad; first compound 0.1265 µM): 0.981 | relative viability (LC-2-ad; first compound 0.4 µM): 0.936 | relative viability (LC-2-ad; first compound 4 µM): 0.847 | relative viability (NCI-H650; first compound 0.04 µM): 0.742 | relative viability (NCI-H650; first compound 0.1265 µM): 0.801 | relative viability (NCI-H650; first compound 0.4 µM): 0.761 | relative viability (NCI-H650; first compound 4 µM): 0.552 | relative viability (NCI-H2126; first compound 0.04 µM): 1.13 | relative viability (NCI-H2126; first compound 0.1265 µM): 1.12 | relative viability (NCI-H2126; first compound 0.4 µM): 1.17 | relative viability (NCI-H2126; first compound 4 µM): 1.06 | relative viability (LCLC-97TM1; first compound 0.1265 µM): 0.615 | relative viability (LCLC-97TM1; first compound 0.4 µM): 0.33 | relative viability (LCLC-97TM1; first compound 4 µM): 0.391 | relative viability (COR-L 105; first compound 0.04 µM): 0.741 | relative viability (COR-L 105; first compound 0.1265 µM): 0.896 | relative viability (COR-L 105; first compound 0.4 µM): 1.1 | relative viability (COR-L 105; first compound 4 µM): 0.484 | relative viability (H3255; first compound 0.04 µM): 0.495 | relative viability (H3255; first compound 0.1265 µM): 0.771 | relative viability (H3255; first compound 0.4 µM): 0.534 | relative viability (H3255; first compound 4 µM): 0.582 | relative viability (PC-14; first compound 0.04 µM): 0.993 | relative viability (PC-14; first compound 0.1265 µM): 0.859 | relative viability (PC-14; first compound 0.4 µM): 0.798 | relative viability (PC-14; first compound 4 µM): 0.664 | relative viability (201T; first compound 0.04 µM): 1.12 | relative viability (201T; first compound 0.1265 µM): 1.04 | relative viability (201T; first compound 0.4 µM): 1.16 | relative viability (201T; first compound 4 µM): 1.09 | relative viability (NCI-H661; first compound 0.1265 µM): 0.798 | relative viability (NCI-H661; first compound 0.4 µM): 0.765 | relative viability (NCI-H661; first compound 4 µM): 0.778
